Results as given in article PMC9297976 (Journal of Applied Toxicology, 2021).

How the values were obtained:
medaka ARβ (mArβ) [1] = molecular target: T1, medaka ARβ (mArβ) (Oryzias latipes, UniProt D1MV73); test: Medaka ARβ reporter gene assay, antagonist assay; format: cell-based, Japanese medaka (Oryzias latipes)
T1 sequence (D1MV73 1-744): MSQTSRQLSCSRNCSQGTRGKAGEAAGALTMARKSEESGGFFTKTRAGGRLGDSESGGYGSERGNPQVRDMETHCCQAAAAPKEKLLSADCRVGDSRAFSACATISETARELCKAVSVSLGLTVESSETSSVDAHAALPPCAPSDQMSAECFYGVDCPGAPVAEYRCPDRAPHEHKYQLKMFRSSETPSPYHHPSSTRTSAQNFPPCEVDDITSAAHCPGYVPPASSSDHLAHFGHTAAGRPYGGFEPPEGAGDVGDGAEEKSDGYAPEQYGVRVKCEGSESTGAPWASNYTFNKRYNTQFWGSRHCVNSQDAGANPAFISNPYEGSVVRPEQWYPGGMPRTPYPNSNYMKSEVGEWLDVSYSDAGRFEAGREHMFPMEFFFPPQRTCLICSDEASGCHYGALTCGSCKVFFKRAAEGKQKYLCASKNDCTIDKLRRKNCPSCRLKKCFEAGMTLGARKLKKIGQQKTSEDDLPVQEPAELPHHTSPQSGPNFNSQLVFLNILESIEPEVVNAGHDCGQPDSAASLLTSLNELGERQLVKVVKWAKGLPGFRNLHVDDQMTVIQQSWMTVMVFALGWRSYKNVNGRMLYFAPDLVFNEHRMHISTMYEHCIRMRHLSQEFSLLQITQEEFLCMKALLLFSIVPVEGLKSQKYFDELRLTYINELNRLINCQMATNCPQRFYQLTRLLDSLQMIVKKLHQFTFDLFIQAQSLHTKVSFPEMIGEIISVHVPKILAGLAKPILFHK

medaka Esr1 (mEsr1) [2] = molecular target: T2, medaka Esr1 (mEsr1) (Oryzias latipes, UniProt P50241); test: cell-based; design: species or system Japanese medaka (Oryzias latipes)
T2 sequence (P50241 1-620): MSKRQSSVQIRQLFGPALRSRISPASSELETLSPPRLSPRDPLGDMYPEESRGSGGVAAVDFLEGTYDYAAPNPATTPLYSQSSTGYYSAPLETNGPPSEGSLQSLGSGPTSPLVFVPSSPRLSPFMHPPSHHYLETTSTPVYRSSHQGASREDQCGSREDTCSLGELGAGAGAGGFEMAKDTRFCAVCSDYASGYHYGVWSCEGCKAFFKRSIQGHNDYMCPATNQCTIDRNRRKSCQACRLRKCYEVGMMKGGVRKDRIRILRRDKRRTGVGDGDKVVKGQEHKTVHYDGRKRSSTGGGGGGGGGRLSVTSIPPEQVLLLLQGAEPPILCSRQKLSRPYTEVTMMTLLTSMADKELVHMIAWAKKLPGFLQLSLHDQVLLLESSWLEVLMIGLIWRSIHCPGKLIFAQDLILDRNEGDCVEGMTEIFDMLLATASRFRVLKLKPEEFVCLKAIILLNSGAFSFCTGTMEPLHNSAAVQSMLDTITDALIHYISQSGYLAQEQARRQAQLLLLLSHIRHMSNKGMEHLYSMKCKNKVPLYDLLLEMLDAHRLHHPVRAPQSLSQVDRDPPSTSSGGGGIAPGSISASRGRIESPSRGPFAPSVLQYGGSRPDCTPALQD

medaka Esr1 (mEsr1) [3] = molecular target: T2, medaka Esr1 (mEsr1); test: Medaka Esr1 reporter gene assay, antagonist assay; format: cell-based, Japanese medaka (Oryzias latipes); conditions: E2 spiked at 1.0 nM (B); MAC = 1.0 × 10^−5 M
[4] = test system: Japanese medaka (Oryzias latipes); test: Fish Short‐Term Reproduction Assay; format: in vivo; conditions: for GSI Female / GSI Male / HSI Female / HSI Male / Length Female / Length Male / Weight Female / Weight Male: completion of exposure
medaka ARβ (mArβ) [5] = molecular target: T1, medaka ARβ (mArβ); test: Medaka ARβ reporter gene assay, agonist assay; format: cell-based, Japanese medaka (Oryzias latipes); conditions: MAC = 1.0 × 10^−5 M
[6] = 4.67 mg/L measured, 21 d, sig. ↑ vs control
[7] = measured concentration 0.155 mg/L
[8] = measured concentration 0.826 mg/L
[9] = measured concentration 4.67 mg/L

Structure (SMILES): CC(C)(c1ccc(O)cc1)c1ccc(O)cc1 [BPA, Bisphenol A]
- IC50 (medaka ARβ (mArβ) [1]): 7 µM
- In vitro positive: aAr (medaka ARβ (mArβ) [1]; mode of action in which IC50 or IC30 was obtained in RGA): aAr
- Antagonistic activity on mArβ (in words) (medaka ARβ (mArβ) [1]; transcriptional activity on mArβ by 11KT): inhibitory potency
- EC50 (medaka Esr1 (mEsr1) [2]): 0.086 µM
- In vitro positive: Esr (medaka Esr1 (mEsr1) [2]; mode of action in which EC50 or PC10 was obtained in RGA): Esr
- Antagonistic activity (medaka Esr1 (mEsr1) [3]): NE (MAC = 1.0 × 10^−5 M)^(B)
- Fertility rate ([4]; 0.155 mg/L measured, 21 d): 96 ± 2.1%
- Hepatic VTG, female ([4]; 0.155 mg/L measured, 21 d): 435 ± 65 ng/mg‐liver
- Hepatic VTG, male ([4]; 0.155 mg/L measured, 21 d): 0.5 ± 0.0 ng/mg‐liver
- Mortality ([4]; 0.155 mg/L measured, 21 d): 17%
- Mortality, number of dead fish ([4]; 0.155 mg/L measured, 21 d): 4
- Number of total eggs (per female per day) ([4]; 0.155 mg/L measured, 21 d): 14 ± 1.8
- SSC female (joint plates with papillary processes) ([4]; 0.155 mg/L measured, 21 d): 0 ± 0
- SSC male (joint plates with papillary processes) ([4]; 0.155 mg/L measured, 21 d): 74 ± 3.6
- Fertility rate ([4]; 0.826 mg/L measured, 21 d): 94 ± 1.9%
- Hepatic VTG, female ([4]; 0.826 mg/L measured, 21 d): 768 ± 297 ng/mg‐liver
- Hepatic VTG, male ([4]; 0.826 mg/L measured, 21 d): 0.5 ± 0.0 ng/mg‐liver
- Mortality ([4]; 0.826 mg/L measured, 21 d): 8.3%
- Mortality, number of dead fish ([4]; 0.826 mg/L measured, 21 d): 2
- Number of total eggs (per female per day) ([4]; 0.826 mg/L measured, 21 d): 14 ± 1.6
- SSC female (joint plates with papillary processes) ([4]; 0.826 mg/L measured, 21 d): 0 ± 0
- SSC male (joint plates with papillary processes) ([4]; 0.826 mg/L measured, 21 d): 71 ± 4.2
- Hepatic VTG, female ([4]; 4.67 mg/L measured, 21 d): 3,456 ng/mg‐liver
- SSC female (joint plates with papillary processes) ([4]; 4.67 mg/L measured, 21 d): 0 ± 0
- SSC male (joint plates with papillary processes) ([4]; 4.67 mg/L measured, 21 d): 76 ± 5.7
- Hepatic VTG, male [4, 6]: 2,804 ± 811 ng/mg‐liver
- Mortality [4, 6]: 71%
- Mortality, number of dead fish [4, 6]: 17
- Fertility rate ([4]; 4.67 mg/L measured, 21 d, sig. ↓ vs control): 59 ± 25%
- Fecundity, number of total eggs (in words) ([4]; 21 d): statistically significant decrease
- LOEC, elevated hepatic VTG in males ([4]; 21 d): 4.67 mg/L
- LOECREPRO ([4]; LOEC on reproduction (fecundity and/or fertility)): 4,670 μg/L
- minimal effective concentration ([4]; Oryzias latipes, 504 h, read-out: LOECmVTG): 4.67 µg/mL
- Fertility rate (in words) ([4]; at concentrations that did not affect number of total eggs): significant decrease
- LOECTOX ([4]; lowest observed effect concentration on mortality): 4,670 μg/L
- GSI Female [4, 7]: 6.8 ± 0.5%
- GSI Male [4, 7]: 0.91 ± 0.13%
- HSI Female [4, 7]: 3.4 ± 0.46%
- HSI Male [4, 7]: 2.1 ± 0.40%
- Length Female [4, 7]: 31.7 ± 0.9 mm
- Length Male [4, 7]: 33.2 ± 0.9 mm
- Weight Female [4, 7]: 313 ± 23 mg
- Weight Male [4, 7]: 290 ± 23 mg
- GSI Female [4, 8]: 6.0 ± 1.0%
- GSI Male [4, 8]: 0.80 ± 0.23%
- HSI Female [4, 8]: 3.3 ± 0.75%
- HSI Male [4, 8]: 2.3 ± 0.45%
- Length Female [4, 8]: 32.0 ± 0.9 mm
- Length Male [4, 8]: 32.5 ± 0.9 mm
- Weight Female [4, 8]: 342 ± 20 mg
- Weight Male [4, 8]: 310 ± 10 mg
- GSI Female [4, 9]: 2.3%
- GSI Male [4, 9]: 0.77 ± 0.23%
- HSI Female [4, 9]: 4.8%
- HSI Male [4, 9]: 3.4 ± 1.15%
- Length Female [4, 9]: 30.6 mm
- Length Male [4, 9]: 33.6 ± 1.9 mm
- Weight Female [4, 9]: 281 mg
- Weight Male [4, 9]: 370 ± 72 mg
- Agonistic activity (medaka ARβ (mArβ) [5]): NE (MAC = 1.0 × 10^−5 M)
